The values that follow come from article PMC11312515, “Biochemical and Structural Characterization of a Novel Psychrophilic Laccase (Multicopper Oxidase) Discovered from Oenococcus oeni 229 (ENOLAB 4002)” (International Journal of Molecular Sciences, 2024).

Series [1] deals with T1, LcOe 229 (Oenococcus oeni, UniProt Q04HQ8).
T1 construct: gene OEOE_0009
T1 sequence (Q04HQ8 1-488): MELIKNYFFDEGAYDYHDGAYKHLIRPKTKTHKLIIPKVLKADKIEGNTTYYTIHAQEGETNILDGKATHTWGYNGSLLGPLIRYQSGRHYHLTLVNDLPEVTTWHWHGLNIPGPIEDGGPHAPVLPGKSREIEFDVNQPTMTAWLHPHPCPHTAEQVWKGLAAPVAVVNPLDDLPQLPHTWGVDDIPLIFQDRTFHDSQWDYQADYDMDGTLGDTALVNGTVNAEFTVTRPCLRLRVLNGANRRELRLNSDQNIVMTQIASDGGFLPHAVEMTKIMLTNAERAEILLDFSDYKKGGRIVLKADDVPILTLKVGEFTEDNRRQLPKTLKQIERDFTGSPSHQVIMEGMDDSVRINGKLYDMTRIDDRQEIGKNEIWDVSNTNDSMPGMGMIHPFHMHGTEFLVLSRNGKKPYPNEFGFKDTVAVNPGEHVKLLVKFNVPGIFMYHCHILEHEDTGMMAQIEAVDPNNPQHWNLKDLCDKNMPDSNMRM
The following applies: read-out: % residual activity at 1 mM.

The target in series [2] is T1, LcOe 229. It is filed as biochemical. The following applies: 2 mM ABTS, 0.1 mM CuSO4, McIlvaine buffer pH 2.5.
Substrate in series [3]: COc1cccc(OC)c1O
In words: oxidation followed at OD468, microplate, initial rates. The following applies: McIlvaine buffer pH 8, 24 °C, hyperbolic. It is filed as biochemical, Oenococcus oeni.

As to `c1ccc(-c2ccccn2)nc1` [2,2′-bipyridyl], the remaining activity at 1000 µM on LcOe 229 [1] was determined as 94%.

`CCN=C=NCCCN(C)C` [EDC]: the “% residual activity at 1 mM” value at LcOe 229 [2] is “observed with ZnCl2, EDTA, pargyline, EDC, deprenyl, clorgyline, and NaCl”.

Take `C#CCN(C)CCCOc1ccc(Cl)cc1Cl` [clorgyline]: on LcOe 229 [2], the “% residual activity at 1 mM” value was “observed with ZnCl2, EDTA, pargyline, EDC, deprenyl, clorgyline, and NaCl”.

`NC1CC1` [cyclopropylamine]: the remaining activity at 1000 µM on LcOe 229 [1] worked out at 77%.

For the molecule `C#CCN(C)C(C)Cc1ccccc1` (stereo not drawn) [deprenyl], the “% residual activity at 1 mM” value at LcOe 229 [2] was “observed with ZnCl2, EDTA, pargyline, EDC, deprenyl, clorgyline, and NaCl”.

On to `C#CCN(C)Cc1ccccc1` [pargyline], for which, at LcOe 229 [2], the “% residual activity at 1 mM” value is “observed with ZnCl2, EDTA, pargyline, EDC, deprenyl, clorgyline, and NaCl”.

`C#CCN[C@@H]1CCc2ccccc21` [rasagiline]: the remaining activity at 1000 µM at LcOe 229 [1] was 65%.

`NNC(N)=O` [semicarbazide]: the remaining activity at 1000 µM on LcOe 229 [1] is less than 15%.

B1: LcOe 229 (Oenococcus oeni PSU-1) (protein)
chain: MELIKNYFFDEGAYDYHDGAYKHLIRPKTKTHKLIIPKVLKADKIEGNTTYYTIHAQEGETNILDGKATHTWGYNGSLLGPLIRYQSGRHYHLTLVNDLPEVTTWHWHGLNIPGPIEDGGPHAPVLPGKSREIEFDVNQPTMTAWLHPHPCPHTAEQVWKGLAAPVAVVNPLDDLPQLPHTWGVDDIPLIFQDRTFHDSQWDYQADYDMDGTLGDTALVNGTVNAEFTVTRPCLRLRVLNGANRRELRLNSDQNIVMTQIASDGGFLPHAVEMTKIMLTNAERAEILLDFSDYKKGGRIVLKADDVPILTLKVGEFTEDNRRQLPKTLKQIERDFTGSPSHQVIMEGMDDSVRINGKLYDMTRIDDRQEIGKNEIWDVSNTNDSMPGMGMIHPFHMHGTEFLVLSRNGKKPYPNEFGFKDTVAVNPGEHVKLLVKFNVPGIFMYHCHILEHEDTGMMAQIEAVDPNNPQHWNLKDLCDKNMPDSNMRM
notes: full length, 488 residues, 55544 Da, in pET-28a(+) NheI/BamHI, N-terminal His tag (thrombin-cleavable; cleavage told for crystallography), E. coli BL21(DE3)/pGro7; Ni-NTA; monomer; PCR fragment given as 1641 bp
Turning to B1, in series [3], the Km is 0.73 (±0.17) mM, the Vmax turned out to be 0.01 µmol/min/mg, the kcat turned out to be 0.01 s⁻¹ and the kcat/Km was found to be 10 M⁻¹ s⁻¹.

As usually defined, the Vmax is the rate approached at saturating substrate. Broadly, the kcat is the number of substrate molecules converted per active site and unit of time at saturation. Usually kcat/Km stands for the turnover number divided by the Michaelis constant.
